Assay results taken from patent publication US12396985B2, “Composition for oral administration with controlled release properties comprising complex of clay minerals, method for preparing same, and method for controlling release properties” (Korea Institute of Geoscience and Mineral Resources, priority 2019, dated 2025).
Values after ≈ are worked out from the molar mass of the structure shown.

What was measured:
[1] = tested on: ulcerative colitis mouse model induced with DSS; experiment: histopathological severity scores in ulcerative colitis mouse model induced with DSS; type: in vivo, C57BL/6 mice
Description: Animal tests were performed to confirm anti-inflammatory, anti-crypt cell damage, anti-ulcer, anti-edema, and anti-fibrosis effects of a vactosertib/bentonite complex using a mouse model of ulcerative colitis as one of inflammatory bowel diseases. C57BL/6 mice were selected as test animals, and in order to induce ulcerative colitis, a cycle in which an inflammation inducing substance, DSS was added in drinking water and supplied for 7 days, and then normal drinking water was supplied for 14 days was repeated. Such an inflammation inducing cycle was repeated 3 times to induce chronic inflammation, ulcer and fibrous conditions in the large intestine. To test animal groups except for control groups, from 3 weeks after a first inflammation inducing cycle was elapsed, bentonite, vactosertib, or a vactosertib/bentonite complex was administered twice a day (10 am, 4 pm), 5 days a week, and for total 6 weeks. The bentonite per 1 kg of converted mouse weight was administered with 106.8 mg, the vactosertib was administered with 20.0 mg, and the complex was administered with 126.8 mg. At this time, as the vactosertib/bentonite complex, the complex prepared in Test Example 5 was used. For each test group used in ulcerative colitis animal tests, inflammation inducing substances, test substances, doses of the test substances, and the number of test animals were shown in Table 7 below.
C57BL/6 mice used in the test were supplied from the Orient Bio Gapyeong Center (699-13, Mokdong-ri, Buk-yeon, Gapyeong-gun, Gyeonggi-do), and about 6-week-old during obtaining. For about 7 days after obtaining, the rats were quarantined and purified and then healthy animals were used for the test. When the induced material was administered, the test animals were about 8-week-old, and 52 mice were used. The test animals were bred in the 2nd floor of Clean Animal Room, Bioscience Research Institute, Research Institute of Medical Science at Inha University, and circulated in at least 10 times/hour and bred under conditions of a temperature of 22±4° C., relative humidity of 50±20%, and illuminance of 150 to 300 Lux of lighting on for 12 hours (lighting: 08:00 to 20:00). A radiation solid feed (FeedLab GMO Free Rodent Diet GF2005) for rodents was free-taken using a feeder and water sterilized by an ultraviolet-ray flowing water sterilizer and high-pressure vapor after reverse osmosis was free-taken using a polysulfonate-made drinking water bottle (300 ml).
In order to induce ulcerative colitis, 2% DSS was added in drinking water of mice and continuously supplied for first 7 days of every test cycle (3 weeks). The test substances were orally administered 2 times a day, 5 days a week, and for a total of 6 weeks at the same time of second DSS induction (FIG. 14). The test substance dose was administered in a liquid amount of 20 mL per kg by body weight converted for each individual based on the body weight. The administration was orally performed by putting a test substance in a syringe and injecting the test substance by connecting a feeding needle for rats.
In order to evaluate a treatment effect of test substances on ulcerative colitis, after the end of the test, the animal was anesthetized, opened, and bled and then a histopathological test was performed for each individual. Histopathological findings were subdivided and scored into severity changes of inflammation, crypt cell damage, ulcer, edema, and fibrosis as shown in Table 8 below. In addition, the four histopathological severity scores excluding fibrosis were summed to compare a positive control (G2) and test substance-administered groups (G3, G4, and […]).
Statistical analysis was performed using Graphpad Prism version 8.01, and a minimum unit of significance was set to p<0.05. Since all measured histopathological indexes were nonparametric data, the indexes were represented by a median, 25% to 75% values (in the box), and minimum-maximum values (both ends) in the graph (FIGS. 15 to 20). […]

[2] = adsorption rate of vactosertib onto bentonite; type: physicochemical
Description: The adsorption rates of vactosertib and bentonite according to the pH of a solvent were evaluated. At this time, considering that the vactosertib was not dissolved in neutral, but stated to be dissolved in about 1 mg/mL from pH 3, a test was performed by setting a reaction pH to pH 1, pH 2, and pH 3. First, 10 mg/mL of the vactosertib was dissolved in a 0.1 N hydrochloric acid aqueous solution and diluted with a hydrochloric acid aqueous solution or a phosphate buffer solution (pH 1: 0.1 N hydrochloric acid aqueous solution, pH 2, pH 3: phosphate buffer solution) corresponding to each pH to adjust the concentration to 1 mg/mL. 1 mL of a corresponding drug solution, 8 mL of a reaction solution (that is, 0.1 N hydrochloric acid aqueous solution or phosphate buffer solution) corresponding to each pH, and 1 mL of a 5 mg/mL suspension in which bentonite was suspended in distilled water were mixed and left for 30 minutes to adsorb the drug onto the bentonite. Thereafter, a drug concentration of a supernatant obtained by centrifugation (3,000 rpm, 5 minutes) was analyzed. Through this, the drug amount adsorbed onto the bentonite was indirectly calculated as shown in Equation 1 by removing the remaining drug amount in the supernatant from the entirely applied drug (vactosertib) to calculate an adsorption rate. [formula] [formula] To this end, a sample was prepared in the same manner as in Test Example 1, and a complex was prepared by fixing a reaction concentration and a reaction pH of bentonite to 0.5 mg/mL and pH 1, respectively, and varying the concentration of the applied vactosertib from 0.01 mg/mL to 0.5 mg/mL. In addition, a difference in adsorption rate according to the concentration of vactosertib was measured. To this end, a sample was prepared in the same manner as in Test Example 1, and a complex was prepared by using a solvent of pH 1, setting a concentration ratio of vactosertib and bentonite to 1:5, and varying an absolute concentration (that is, actual concentration). In addition, a difference in adsorption rate according to an absolute concentration was measured.

[3] = aqueous solubility of the compound of Chemical Formula 1; type: physicochemical
[4] = partition coefficient (octanol/water); type: physicochemical
interleukin 6 (IL-6) = experiment: immunohistochemical IL-6 staining of large intestine, DSS ulcerative colitis mouse model; type: in vivo, C57BL/6 mice; settings: DSS 2% mice, same dosing
Description: Animal tests were performed to confirm anti-inflammatory, anti-crypt cell damage, anti-ulcer, anti-edema, and anti-fibrosis effects of a vactosertib/bentonite complex using a mouse model of ulcerative colitis as one of inflammatory bowel diseases. C57BL/6 mice were selected as test animals, and in order to induce ulcerative colitis, a cycle in which an inflammation inducing substance, DSS was added in drinking water and supplied for 7 days, and then normal drinking water was supplied for 14 days was repeated. Such an inflammation inducing cycle was repeated 3 times to induce chronic inflammation, ulcer and fibrous conditions in the large intestine. […]
In order to observe an immunohistochemical change of a large intestine tissue, a tissue fixed to a 10% neutral buffer formalin solution was sliced, attached to a coating slide, and deparaffinized, and then stained, and IHC of reacting with antibodies IL-6 (Interleukin-6), α-SMA (α-smooth muscle actin), and TGF-β (transforming growth factor beta) on each slide was requested to an external institute (Notus) and the test was performed. In an individual-specific tissue slide, three constant zones were specified and imaged 100 times, a stained portion to the total area was measured, and a mean value was calculated (Zen 2.3 blue edition, Carl Zeiss, Germany). […]

[5] = DSS 2% mice, oral twice a day, 5 days a week, 6 weeks, bentonite 106.8, vactosertib 20.0, complex 126.8 mg/kg, 3 point scale

## Cc1cccc(-c2[nH]c(CNc3ccccc3F)nc2-c2ccc3ncnn3c2)n1 [Vactosertib, N-((4-([1,2,4]triazolo[1,5-a]pyridine-6-yl)-5-(6-methylpyridin-2-yl)-1H-imidazol-2-yl)methyl)-2-fluoroaniline]
[1]; DSS 2% mice, oral twice a day, 5 days a week, 6 weeks, bentonite 106.8, vactosertib 20.0, complex 126.8 mg/kg, 1 point scale
  Edema score (mean): 0.3
[1]; [5]
  Fibrosis score (mean): 1.5
  Ulcer score (mean): 0.9
[1]; DSS 2% mice, oral twice a day, 5 days a week, 6 weeks, bentonite 106.8, vactosertib 20.0, complex 126.8 mg/kg, 4 point scale
  Crypt cell damage score (mean): 2
[1]; DSS 2% mice, oral twice a day, 5 days a week, 6 weeks, bentonite 106.8, vactosertib 20.0, complex 126.8 mg/kg, 5 point scale
  Inflammation score (mean): 3.6
[1]; FIG. 15, Dunn's test
  median of inflammation index compared with the positive control group (G2): slightly low in a median of an inflammation index
[1]; FIG. 16, Dunn's test
  median of crypt cell damage index compared with the positive control group (G2): low in a median of a crypt cell damage index, but had no statistical significance
[1]; FIG. 17, Dunn's test
  median of ulcer index compared with the positive control group (G2): low in a median of an ulcer index, but had no statistical significance
[1]; FIG. 19, Dunn's test
  median of fibrosis index compared with the positive control group (G2): slightly low in a median of a fibrosis index
[1]; FIG. 20, Dunn's test
  median of summed severity scores (inflammation, crypt cell damage, ulcer, edema) compared with the positive control group (G2): low in a median of an ulcer index, but had no statistical significance
[1]; sum of inflammation, crypt cell damage, ulcer, edema (fibrosis excluded), same dosing
  Histopathologic total score (mean): 6.8
[2]; vactosertib 0.01 mg/mL, bentonite 0.5 mg/mL, pH 1
  Adsorption rate: 99.4 ± 0.1%
[2]; vactosertib 0.025 mg/mL, bentonite 0.5 mg/mL, pH 1
  Adsorption rate: 99.8 ± 0.0%
[2]; vactosertib 0.05 mg/mL, bentonite 0.5 mg/mL, pH 1
  Adsorption rate: 99.8 ± 0.1%
[2]; vactosertib 0.1 mg/mL, bentonite 0.5 mg/mL, pH 1
  Adsorption rate: 80.7 ± 1.0%
[2]; vactosertib 0.1 mg/mL, bentonite 0.5 mg/mL, pH 2
  Adsorption rate: 79.3 ± 1.0%
[2]; vactosertib 0.1 mg/mL, bentonite 0.5 mg/mL, pH 3
  Adsorption rate: 79.0 ± 0.8%
[2]; vactosertib 0.15 mg/mL, bentonite 0.5 mg/mL, pH 1
  Adsorption rate: 57.1 ± 1.5%
[2]; vactosertib 0.2 mg/mL, bentonite 0.5 mg/mL, pH 1
  Adsorption rate: 43.8 ± 0.5%
[2]; vactosertib 0.3 mg/mL, bentonite 0.5 mg/mL, pH 1
  Adsorption rate: 31.2 ± 1.2%
[2]; vactosertib 0.4 mg/mL, bentonite 0.5 mg/mL, pH 1
  Adsorption rate: 23.0 ± 0.8%
[2]; vactosertib 0.5 mg/mL, bentonite 0.5 mg/mL, pH 1
  Adsorption rate: 19.0 ± 0.9%
[2]; vactosertib 1 mg/mL, bentonite 5 mg/mL, pH 1
  Adsorption rate: 90.4 ± 0.2%
[3]; 25 °C, water, thermodynamic from solid, saturated aqueous solution at 25±3° C., pH 7.2
  solubility: < 20 µg/mL
[3]; 25±3° C.
  pH of a saturated aqueous solution: 7.2
[3]; aqueous solution, aqueous buffer, at pH 2.81
  solubility: 25000 µg/mL (≈ 62700 µM)
[3]; aqueous solution, aqueous buffer, at pH 3
  solubility: ~1000 µg/mL (≈ 2500 µM)
[3]; aqueous solution, aqueous buffer, in pH 4.9 or higher
  solubility: ≤ 20 µg/mL
[4]
  partition coefficient (octanol/water) Log Do/w: 3.31
Interleukin 6 (IL-6)
  reduction of IL-6 staining area compared with G2 group: 23.0%
Interleukin 6 (IL-6); mean and standard error
  IL-6 (Area %): 9.7 ± 2.9 Area %
